Data on 16 molecules can be found in patent US20260138976A1 (Hoffmann-La Roche Inc., priority 2022, published 2026).

The test system of assay [1] is primary human T-cells. Briefly: IL2 secretion measurements (24 h, CD3-stimulated T-cells, PBS counter screen). It is filed as cell-based. To be noted: for Emax IL2 (% activation): CD3 condition, normalised to DMSO (neutral) and 20 μM reference compound A1 = 100%; for EC50: Homo sapiens, T-cell, CD3-stimulated primary human T-cells, IL2 secretion, fitted sigmoidal curve, read-out: Tcell IL2 CD3 EC50. In outline:
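IL-2 secretion was measured by ProQuantum or ELISA after 24 h culture of expanded human T-cells with compound, on CD3-antibody-coated plates or PBS counter-screen plates. Dosing used 5–6 points from a 20 or 10 μM final top at 3.333-fold steps in 0.2% DMSO. EC50/Emax were scaled between DMSO and 20 μM reference A1.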

The subject of assay [2] is primary human T-cells. The assay can be described thus: Proliferation assay (5 days, CellTiter-Glo, CD3-stimulated T-cells). Format: cell-based. To be noted: for Emax proliferation (% activation): CD3 condition, normalised to DMSO (neutral) and 20 μM reference compound A1 = 100%; for EC50: Homo sapiens, T-cell, 120 h, CD3-stimulated primary human T-cells, 5 days, CellTiter-Glo, fitted sigmoidal curve, read-out: Tcell Proliferation CD3 EC50. In outline:
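Proliferation read-out: ATP luminescence (CellTiter-Glo 2.0) at day 5 in expanded primary human T-cells on CD3 antibody-coated plates, with PBS-only plates as a counter screen. Compounds in 5–6 pt series (factor 3.333, top 20 or 10 μM final). Values are normalized to DMSO (neutral) and 20 μM reference A1 (100%), from sigmoidal fits.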

Regarding `N[C@H]1CS(=O)(=O)c2ccc(-c3nnc(C(F)C(F)(F)F)o3)cc2N(Cc2ccc(-c3noc(C4CC4)n3)cc2)C1=O` (stereo partly drawn) [Example 168, (3R)-3-amino-5-[[4-(5-cyclopropyl-1,2,4-oxadiazol-3-yl)phenyl]methyl]-1,1-dioxo-7-[5-(1,2,2,2-tetrafluoroethyl)-1,3,4-oxadiazol-2-yl]-2,3-dihydro-1λ^6,5-benzothiazepin-4-one], in assay [1], the “Emax IL2 (% activation)” value came out at 67 % activation and the EC50 stood at 4.87 µM. In assay [2], the “Emax proliferation (% activation)” value came to 62 % activation and the EC50 amounted to 2.62 µM.

In the case of `CC(F)(F)c1ccc(-c2ccc(CN3C(=O)[C@@H](N)CS(=O)(=O)c4ccc(-c5nnc(C(C)(C)C#N)o5)cc43)cc2)nc1` [Example 109, 2-[5-[(3R)-3-amino-5-[[4-[5-(1,1-difluoroethyl)-2-pyridyl]phenyl]methyl]-1,1,4-trioxo-2,3-dihydro-1λ^6,5-benzothiazepin-7-yl]-1,3,4-oxadiazol-2-yl]-2-methyl-propanenitrile], in assay [1], the “Emax IL2 (% activation)” value is 360 % activation and the EC50 turned out to be 3.4 µM. Further, in assay [2], the “Emax proliferation (% activation)” value is recorded as 129 % activation and the EC50 stood at 0.445 µM.

With `CC(C)(C#N)c1nnc(-c2ccc3c(c2)N(Cc2ccc(-c4cnc(C(F)(F)F)nc4)cc2)C(=O)[C@@H](N)CS3(=O)=O)o1` [Example 100], in assay [1], the “Emax IL2 (% activation)” value is 100 % activation and the EC50 was determined as 3.22 µM. For the same molecule, in assay [2], the “Emax proliferation (% activation)” value came to 96 % activation and the EC50 stood at 1.9 µM.

Take `N[C@H]1CS(=O)(=O)c2cc(F)c(-c3noc(N4CCOC5(CC5)C4)n3)cc2N(Cc2ccc(-c3noc(C(F)(F)F)n3)nc2)C1=O` [Example 14, (3R)-3-amino-8-fluoro-7-[5-(4-oxa-7-azaspiro[2.5]octan-7-yl)-1,2,4-oxadiazol-3-yl]-1,1-dioxo-5-[[6-[5-(trifluoromethyl)-1,2,4-oxadiazol-3-yl]-3-pyridyl]methyl]-2,3-dihydro-1λ^6,5-benzothiazepin-4-one]: in assay [1], the “Emax IL2 (% activation)” value is 93 % activation and the EC50 came out at 3.99 µM. Moreover, in assay [2], the “Emax proliferation (% activation)” value is 96 % activation and the EC50 amounted to 3.85 µM.

Take `CC(C)(C#N)c1nnc(-c2ccc3c(c2)N(Cc2ccc(-c4ncc(C(F)(F)F)o4)cc2)C(=O)[C@@H](N)CS3(=O)=O)o1` [Example 105, 2-[5-[(3R)-3-amino-1,1,4-trioxo-5-[[4-[5-(trifluoromethyl)oxazol-2-yl]phenyl]methyl]-2,3-dihydro-1λ^6,5-benzothiazepin-7-yl]-1,3,4-oxadiazol-2-yl]-2-methyl-propanenitrile]: in assay [1], the “Emax IL2 (% activation)” value stood at 146 % activation and the EC50 stood at 0.999 µM. In addition, in assay [2], the “Emax proliferation (% activation)” value turned out to be 138 % activation and the EC50 was 0.391 µM.

With `CC1(Nc2nnc(-c3cc4c(cc3F)S(=O)(=O)C[C@H](N)C(=O)N4Cc3ccc(-c4noc(C(F)(F)F)n4)cc3)o2)CC(F)(F)C1` [Example 3, (3R)-3-amino-7-[5-[(3,3-difluoro-1-methyl-cyclobutyl)amino]-1,3,4-oxadiazol-2-yl]-8-fluoro-1,1-dioxo-5-[[4-[5-(trifluoromethyl)-1,2,4-oxadiazol-3-yl]phenyl]methyl]-2,3-dihydro-1λ^6,5-benzothiazepin-4-one], in assay [1], the “Emax IL2 (% activation)” value is given as 594 % activation and the EC50 turned out to be 0.213 µM. In assay [2], the “Emax proliferation (% activation)” value amounted to 165 % activation and the EC50 amounted to 0.795 µM.

With `CC(C)(C#N)c1nnc(-c2ccc3c(c2)N(Cc2ccc(-c4cc(OC(F)(F)F)ccn4)cc2)C(=O)[C@@H](N)CS3(=O)=O)o1` [Example 126, 2-[5-[(3R)-3-amino-1,1,4-trioxo-5-[[4-[4-(trifluoromethoxy)-2-pyridyl]phenyl]methyl]-2,3-dihydro-1λ^6,5-benzothiazepin-7-yl]-1,3,4-oxadiazol-2-yl]-2-methyl-propanenitrile], in assay [1], the “Emax IL2 (% activation)” value was determined as 254 % activation and the EC50 is 2.11 µM. Besides, in assay [2], the “Emax proliferation (% activation)” value is 212 % activation and the EC50 worked out at 2.49 µM.

Take `N#CC1(c2nc(-c3cc4c(cc3F)S(=O)(=O)C[C@H](N)C(=O)N4Cc3ccc(-c4noc(C(F)(F)F)n4)cc3)no2)CC1` [Example 16, 1-[3-[(3R)-3-amino-8-fluoro-1,1,4-trioxo-5-[[4-[5-(trifluoromethyl)-1,2,4-oxadiazol-3-yl]phenyl]methyl]-2,3-dihydro-1λ^6,5-benzothiazepin-7-yl]-1,2,4-oxadiazol-5-yl]cyclopropanecarbonitrile]: in assay [1], the “Emax IL2 (% activation)” value was 315 % activation and the EC50 turned out to be 0.368 µM. Also, in assay [2], the “Emax proliferation (% activation)” value amounted to 228 % activation and the EC50 amounted to 0.115 µM.

On to `N#CC1(c2nnc(-c3ccc4c(c3)N(Cc3ccc(-c5ccc(C(F)(F)F)cn5)cc3)C(=O)[C@@H](N)CS4(=O)=O)o2)CC1` [Example 62, 1-[5-[(3R)-3-amino-1,1,4-trioxo-5-[[4-[5-(trifluoromethyl)-2-pyridyl]phenyl]methyl]-2,3-dihydro-1λ^6,5-benzothiazepin-7-yl]-1,3,4-oxadiazol-2-yl]cyclopropane-carbonitrile], for which, in assay [1], the “Emax IL2 (% activation)” value came to 110 % activation and the EC50 was determined as 2.11 µM. Besides, in assay [2], the “Emax proliferation (% activation)” value is on record as 101 % activation and the EC50 was 1.57 µM.

With `Cc1cc(C)n(-c2ccc(CN3C(=O)[C@@H](N)CS(=O)(=O)c4ccc(-c5nnc(C(C)(C)C)o5)cc43)cc2)n1` [Example 22, (3R)-3-amino-7-(5-tert-butyl-1,3,4-oxadiazol-2-yl)-5-[[4-(3,5-dimethylpyrazol-1-yl)phenyl]methyl]-1,1-dioxo-2,3-dihydro-1λ^6,5-benzothiazepin-4-one], in assay [1], the “Emax IL2 (% activation)” value amounted to 75 % activation and the EC50 came out at 4.58 µM. In assay [2], the “Emax proliferation (% activation)” value is listed as 69 % activation and the EC50 turned out to be 3.93 µM.

Take `C[C@@](N)(c1nnc(-c2ccc3c(c2)N(Cc2ccc(-n4nnc(C(F)(F)F)n4)cc2)C(=O)[C@@H](N)CS3(=O)=O)o1)C(F)(F)F` [Example 156, (3R)-3-amino-7-[5-[(1R)-1-amino-2,2,2-trifluoro-1-methyl-ethyl]-1,3,4-oxadiazol-2-yl]-1,1-dioxo-5-[[4-[5-(trifluoromethyl)tetrazo 1-2-yl]phenyl]methyl]-2,3-dihydro-1λ^6,5-benzothiazepin-4-one]: in assay [1], the “Emax IL2 (% activation)” value is listed as 554 % activation and the EC50 turned out to be 2.11 µM. In assay [2], the “Emax proliferation (% activation)” value was determined as 141 % activation and the EC50 was 1.71 µM.

On to `CC(C)(C)c1nnc(-c2ccc(CN3C(=O)[C@@H](N)CS(=O)(=O)c4ccc(-c5nnc(C(C)(C)C)o5)cc43)cc2)o1` [Example 19, (3R)-3-amino-7-(5-tert-butyl-1,3,4-oxadiazol-2-yl)-5-[[4-(5-tert-butyl-1,3,4-oxadiazol-2-yl)phenyl]methyl]-1,1-dioxo-2,3-dihydro-1λ^6,5-benzothiazepin-4-one], for which, in assay [1], the “Emax IL2 (% activation)” value was found to be 40 % activation and the EC50 is more than 10 µM. For the same molecule, in assay [2], the “Emax proliferation (% activation)” value turned out to be 100 % activation and the EC50 was determined as 3.61 µM.

Regarding `COc1ccc(-c2ccc(CN3C(=O)[C@@H](N)CS(=O)(=O)c4ccc(-c5nnc(C(C)(C)C#N)o5)cc43)cc2)nc1` [Example 125], in assay [1], the “Emax IL2 (% activation)” value is given as 97 % activation and the EC50 amounted to 4.28 µM. Further, in assay [2], the “Emax proliferation (% activation)” value is given as 127 % activation and the EC50 was 2.31 µM.

In the case of `CC(C)(C#N)c1nnc(-c2ccc3c(c2)N(Cc2ccc(-c4ncc(C(F)(F)F)cn4)cc2)C(=O)[C@@H](N)CS3(=O)=O)o1` [Example 127, 2-[5-[(3R)-3-amino-1,1,4-trioxo-5-[[4-[5-(trifluoromethyl)pyrimidin-2-yl]phenyl]methyl]-2,3-dihydro-1λ^6,5-benzothiazepin-7-yl]-1,3,4-oxadiazol-2-yl]-2-methyl-propanenitrile], in assay [1], the “Emax IL2 (% activation)” value is given as 112 % activation and the EC50 was found to be 4.56 µM. In assay [2], the “Emax proliferation (% activation)” value was found to be 130 % activation and the EC50 was 1.98 µM.

For the molecule `COC(F)(c1nnc(-c2ccc3c(c2)N(Cc2ccc(-c4noc(C(F)(F)F)n4)cc2)C(=O)[C@@H](N)CS3(=O)=O)o1)C(F)(F)F` (stereo partly drawn) [Example 37, (3R)-3-amino-1,1-dioxo-7-[5-(1,2,2,2-tetrafluoro-1-methoxy-ethyl)-1,3,4-oxadiazol-2-yl]-5-[[4-[5-(trifluoromethyl)-1,2,4-oxadiazol-3-yl]phenyl]methyl]-2,3-dihydro-1λ^6,5-benzothiazepin-4-one], in assay [1], the “Emax IL2 (% activation)” value was 198 % activation and the EC50 came out at 0.338 µM. Further, in assay [2], the “Emax proliferation (% activation)” value was found to be 173 % activation and the EC50 was determined as 0.304 µM.

As for `C[C@@](N)(c1nnc(-c2ccc3c(c2)N(Cc2ccc(-c4ccc(OC(F)(F)F)cn4)cc2)C(=O)[C@@H](N)CS3(=O)=O)o1)C(F)(F)F` [Example 153, (3R)-3-amino-7-[5-[(1R)-1-amino-2,2,2-trifluoro-1-methyl-ethyl]-1,3,4-oxadiazol-2-yl]-1,1-dioxo-5-[[4-[5-(trifluoromethoxy)-2-pyridyl]phenyl]methyl]-2,3-dihydro-1λ^6,5-benzothiazepin-4-one], in assay [1], the “Emax IL2 (% activation)” value was determined as 193 % activation and the EC50 amounted to 0.245 µM. In assay [2], the “Emax proliferation (% activation)” value was found to be 178 % activation and the EC50 was 0.13 µM.
